Results as given in PubChem BioAssay AID256 (DTP/NCI, 2004).
Inconclusive results and toxic doses are left out. Rule for the calls: active = survival T/C of 150% or more; inactive = T/C below 125% in these data.

System: CD2F1 mice, L1210 leukemia ip, survival T/C
Experiment: NCI In Vivo Anticancer Drug Screen. Data for tumor model L1210 Leukemia (intraperitoneal) in CD2F1 (CDF1) mice
Details: higher = longer survival
Procedure, shortened: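 Tumor-bearing mice (transplanted tumor) were split into treated and vehicle control groups, and the measured endpoint of each treated group was divided by that of its vehicle controls.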

[1] = endpoint: mean survival time, dose: 25.0 mg/kg/injection, schedule: Q01DX009 (ip), vehicle: saline with Tween-80
[2] = endpoint: mean survival time, dose: 50.0 mg/kg/injection, schedule: Q01DX009 (ip), vehicle: saline with Tween-80
[3] = endpoint: median survival time, dose: 50.0 mg/kg/injection, schedule: Q01DX005 (ip), vehicle: saline with Tween-80
[4] = endpoint: median survival time, dose: 100.0 mg/kg/injection, schedule: Q01DX005 (ip), vehicle: saline with Tween-80
[5] = endpoint: median survival time, dose: 200.0 mg/kg/injection, schedule: Q01DX005 (ip), vehicle: saline with Tween-80
[6] = endpoint: mean survival time, dose: 100.0 mg/kg/injection, schedule: Q01DX001 (ip), vehicle: saline with Tween-80
[7] = endpoint: mean survival time, dose: 200.0 mg/kg/injection, schedule: Q01DX001 (ip), vehicle: saline with Tween-80
[8] = endpoint: mean survival time, dose: 400.0 mg/kg/injection, schedule: Q01DX001 (ip), vehicle: saline with Tween-80
[9] = endpoint: mean survival time, dose: 100.0 mg/kg/injection, schedule: Q04DX003 (ip), vehicle: saline with Tween-80
[10] = endpoint: mean survival time, dose: 200.0 mg/kg/injection, schedule: Q04DX003 (ip), vehicle: saline with Tween-80
[11] = endpoint: mean survival time, dose: 400.0 mg/kg/injection, schedule: Q04DX003 (ip), vehicle: saline with Tween-80
[12] = endpoint: mean survival time, dose: 100.0 mg/kg/injection, schedule: Q01DX009 (ip), vehicle: saline with Tween-80
[13] = endpoint: mean survival time, dose: 100.0 mg/kg/injection, schedule: Q04DX003 (ip), vehicle: saline
[14] = endpoint: mean survival time, dose: 200.0 mg/kg/injection, schedule: Q04DX003 (ip), vehicle: saline
[15] = endpoint: mean survival time, dose: 400.0 mg/kg/injection, schedule: Q04DX003 (ip), vehicle: saline

Measured: T/C

CC1(C)N=C(N)N=C(N)N1c1cccc(C#N)c1
inactive: endpoint: mean survival time, dose: 17.0 mg/kg/injection, schedule: Q01DX009 (ip), vehicle: saline 112 % of control | endpoint: mean survival time, dose: 25.0 mg/kg/injection, schedule: Q01DX009 (ip), vehicle: saline 117 % of control | endpoint: mean survival time, dose: 37.5 mg/kg/injection, schedule: Q01DX009 (ip), vehicle: saline 120 % of control | endpoint: mean survival time, dose: 75.0 mg/kg/injection, schedule: Q01DX001 (ip), vehicle: saline 104 % of control | endpoint: mean survival time, dose: 150.0 mg/kg/injection, schedule: Q01DX001 (ip), vehicle: saline 113 % of control

CCOC(=O)CN1CCC2CC1c1c([nH]c3ccccc13)C2c1cc2c(cc1OC)N(C)C1C(O)(C(=O)OC)C(OC(C)=O)C3(CC)C=CCN4CCC21C43 (stereo unspecified)
inactive: endpoint: mean survival time, dose: 0.06 mg/kg/injection, schedule: Q01DX009 (ip), vehicle: other 87 % of control | endpoint: mean survival time, dose: 0.13 mg/kg/injection, schedule: Q01DX009 (ip), vehicle: other 97 % of control | endpoint: mean survival time, dose: 0.25 mg/kg/injection, schedule: Q01DX009 (ip), vehicle: other 92 % of control | endpoint: mean survival time, dose: 0.5 mg/kg/injection, schedule: Q01DX009 (ip), vehicle: other 92 % of control | endpoint: mean survival time, dose: 1.0 mg/kg/injection, schedule: Q01DX009 (ip), vehicle: other 97 % of control | endpoint: mean survival time, dose: 2.0 mg/kg/injection, schedule: Q01DX009 (ip), vehicle: other 90 % of control

OCCN=Cc1ccc(OCc2ccccc2)c(OCc2ccccc2)c1
inactive: endpoint: median survival time, dose: 50.0 mg/kg/injection, schedule: Q04DX002 (ip), vehicle: saline with Tween-80 100 % of control | endpoint: median survival time, dose: 100.0 mg/kg/injection, schedule: Q04DX002 (ip), vehicle: saline with Tween-80 111 % of control | endpoint: median survival time, dose: 200.0 mg/kg/injection, schedule: Q04DX002 (ip), vehicle: saline with Tween-80 88 % of control | endpoint: median survival time, dose: 400.0 mg/kg/injection, schedule: Q04DX002 (ip), vehicle: saline with Tween-80 100 % of control

Cc1cc2c(=O)cc(-c3ccccc3)oc2c(C(=O)O)c1C
inactive: endpoint: median survival time, dose: 31.75 mg/kg/injection, schedule: Q01DX005 (ip), vehicle: saline with Tween-80 109 % of control | endpoint: median survival time, dose: 62.5 mg/kg/injection, schedule: Q01DX005 (ip), vehicle: saline with Tween-80 106 % of control | endpoint: median survival time, dose: 125.0 mg/kg/injection, schedule: Q01DX005 (ip), vehicle: saline with Tween-80 104 % of control | endpoint: median survival time, dose: 250.0 mg/kg/injection, schedule: Q01DX005 (ip), vehicle: saline with Tween-80 102 % of control

Cc1cc(Br)c2ccccc2c1N(CC(=O)O)S(=O)(=O)c1ccccc1
inactive: endpoint: mean survival time, dose: 12.5 mg/kg/injection, schedule: Q01DX009 (ip), vehicle: saline with Tween-80 103 % of control | [1] 103 % of control | [2] 94 % of control

O=C(Nc1ccccc1CCl)Nc1ccccc1CCl
inactive: [3] 111 % of control | [4] 117 % of control | [5] 115 % of control | endpoint: median survival time, dose: 400.0 mg/kg/injection, schedule: Q01DX005 (ip), vehicle: saline with Tween-80 121 % of control

CN(C)C(=S)[S][Sn]([CH3])([CH3])[CH3]
inactive: endpoint: mean survival time, dose: 0.39 mg/kg/injection, schedule: Q01DX009 (ip), vehicle: saline 115 % of control | endpoint: mean survival time, dose: 0.78 mg/kg/injection, schedule: Q01DX009 (ip), vehicle: saline 107 % of control | endpoint: mean survival time, dose: 1.56 mg/kg/injection, schedule: Q01DX009 (ip), vehicle: saline 95 % of control

O=C(COc1cccc(Cl)c1)NCc1cccc(NC(=O)Nc2cccc(S(=O)(=O)F)c2)c1
inactive: [6] 91 % of control | [7] 98 % of control | [8] 101 % of control

CC[n+]1c(-c2ccccc2)c2cc(N)ccc2c2ccc(N)cc21 (tested in a mixture with another compound)
inactive: endpoint: mean survival time, dose: 5.0 mg/kg/injection, schedule: Q01DX009 (ip), vehicle: water 104 % of control | endpoint: mean survival time, dose: 10.0 mg/kg/injection, schedule: Q01DX009 (ip), vehicle: water 104 % of control | endpoint: mean survival time, dose: 20.0 mg/kg/injection, schedule: Q01DX009 (ip), vehicle: water 104 % of control | endpoint: mean survival time, dose: 40.0 mg/kg/injection, schedule: Q01DX009 (ip), vehicle: water 102 % of control | endpoint: mean survival time, dose: 80.0 mg/kg/injection, schedule: Q01DX009 (ip), vehicle: water 86 % of control

CC(=O)c1cc(-c2ccc(C)cc2)nc2c(C)cc(C)cc12
inactive: [9] 92 % of control | [10] 86 % of control | [11] 92 % of control

COc1ccc(OCCOC(=O)Nc2ccc(C)c([N+](=O)[O-])c2)cc1
inactive: [2] 92 % of control | [12] 88 % of control | endpoint: mean survival time, dose: 200.0 mg/kg/injection, schedule: Q01DX009 (ip), vehicle: saline with Tween-80 92 % of control

Cc1cc(N(C)C)ccc1N=Nc1cc[n+]([O-])c(C)c1
inactive: [1] 103 % of control | [2] 108 % of control | [12] 103 % of control | [9] 104 % of control | [10] 102 % of control | [11] 104 % of control

CCN(Cc1ccccc1)c1ccc(SC#N)cc1
inactive: endpoint: mean survival time, dose: 100.0 mg/kg/injection, schedule: Q01DX001 (ip), vehicle: saline 100 % of control | endpoint: mean survival time, dose: 200.0 mg/kg/injection, schedule: Q01DX001 (ip), vehicle: saline 100 % of control | endpoint: mean survival time, dose: 400.0 mg/kg/injection, schedule: Q01DX001 (ip), vehicle: saline 93 % of control

CC([N+](=O)[O-])S(C)(=O)=O (stereo unspecified)
inactive: [6] 97 % of control | [7] 101 % of control | [8] 101 % of control

Clc1nnc(Cl)c(Cl)c1Cl
inactive: endpoint: mean survival time, dose: 1.56 mg/kg/injection, schedule: Q04DX003 (ip), vehicle: saline with Tween-80 88 % of control | endpoint: mean survival time, dose: 3.13 mg/kg/injection, schedule: Q04DX003 (ip), vehicle: saline with Tween-80 88 % of control

Nc1ccc(S(=O)(=O)c2ccc(NCC(=O)O)cc2)cc1
inactive: [13] 100 % of control | [14] 100 % of control | [15] 100 % of control

O=Cc1c[nH]c2ncccc12
inactive: [9] 98 % of control | [10] 94 % of control | [11] 98 % of control

Cc1cccc2c(=O)c3ccccc3oc12
inactive: [13] 102 % of control | [14] 102 % of control | [15] 104 % of control

N#Cc1nn(C2OC(COC(=O)c3ccccc3)C(OC(=O)c3ccccc3)C2OC(=O)c2ccccc2)c2nc[nH]c(=O)c12 (stereo unspecified)
inactive: endpoint: median survival time, dose: 12.5 mg/kg/injection, schedule: Q01DX005 (ip), vehicle: saline with Tween-80 107 % of control | endpoint: median survival time, dose: 25.0 mg/kg/injection, schedule: Q01DX005 (ip), vehicle: saline with Tween-80 103 % of control | [3] 97 % of control | [4] 97 % of control | [5] 119 % of control

CCOC(=O)c1c(C)oc2cc3c(C(=O)OCC)c(C)oc3cc12
inactive: endpoint: mean survival time, dose: 100.0 mg/kg/injection, schedule: Q01DX001 (ip), vehicle: Klucel (hydroxypropylcellulose) (HPC) 90 % of control | endpoint: mean survival time, dose: 200.0 mg/kg/injection, schedule: Q01DX001 (ip), vehicle: Klucel (hydroxypropylcellulose) (HPC) 95 % of control | endpoint: mean survival time, dose: 400.0 mg/kg/injection, schedule: Q01DX001 (ip), vehicle: Klucel (hydroxypropylcellulose) (HPC) 93 % of control

CCN=NNc1ccc(C)cc1
inactive: [2] 114 % of control | [12] 106 % of control | [9] 102 % of control | [10] 100 % of control

O=[N+]([O-])c1ccc(O)c(N=Cc2ccccc2O)c1
inactive: endpoint: mean survival time, dose: 100.0 mg/kg/injection, schedule: Q04DX002 (ip), vehicle: Klucel (hydroxypropylcellulose) (HPC) 105 % of control | endpoint: mean survival time, dose: 200.0 mg/kg/injection, schedule: Q04DX002 (ip), vehicle: Klucel (hydroxypropylcellulose) (HPC) 97 % of control | endpoint: mean survival time, dose: 400.0 mg/kg/injection, schedule: Q04DX002 (ip), vehicle: Klucel (hydroxypropylcellulose) (HPC) 97 % of control
